Like-named read-outs stand apart in the source and are kept apart here.
Columns and labels:
[1] = system: rat cardiac contractility (left ventricle fractional shortening); test: Echocardiography of acute effect on rat cardiac contractility, continuous IV infusion; type: in vivo, Sprague Dawley rats; details: plasma concentration at which fractional shortening is 50% of pre-dose baseline, estimated, read-out: IC50 (Mean ± S.D.)
Method: (§1) Assessment of in vivo cardiac function by echocardiography was performed in male Sprague Dawley rats under isoflurane (1-3%) anesthesia. 2-D M-mode images of the left ventricle were acquired in the parasternal long-axis view before, during, and after administration of compounds by continuous IV infusion or oral gavage. In vivo fractional shortening was determined by M-mode image analysis with the following calculation: ((End diastolic diameter−end systolic diameter)/end diastolic diameter×100). For continuous IV infusion experiments, three pre-dose baseline M-mode images were taken at 1 minute intervals prior to infusion of compound. Compounds were formulated in 50% Propylene Glycol (PG): 16% Captisol: 10% dimethylacetamide (DMA) and delivered via a jugular vein catheter at the rate of 1 mL/kg/h. During infusion, M-mode images were taken at 5 minute intervals. The infusion stopped when fractional shortening reached up to a 60% reduction from baseline. Blood samples were taken to determine the plasma concentration of the compounds. Data was reported as an estimated IC50 value, which is the concentration at which fractional shortening is 50% of the pre-dose baseline contractility.

[2] = biological target: bovine cardiac myofibrils (full-length cardiac myosin ATPase in the native sarcomere) (Bos taurus (Bovine), UniProt Q9BE39); test: Skinned bovine cardiac myofibril ATPase assay (PK/LDH-coupled); type: biochemical; details: Ca2+ activating to 75% of maximal rate; for CDMF75 IC15: concentration giving 15% inhibition; for IC50: read-out: CDMF75 IC50
Procedure, shortened: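 Triton-skinned bovine left-ventricle myofibrils (1 mg/mL) in PM 12 buffer (12 mM PIPES, 2 mM MgCl2, pH 6.8) with 50 μM ATP, 0.6 mM EGTA and CaCl2 set for 50% or 75% activation. Steady-state ATPase inhibition followed by PK/LDH-coupled NADH oxidation at 340 nm.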

[3] = system: rat cardiac contractility (left ventricle fractional shortening); test: Echocardiography of acute effect on rat cardiac contractility, oral gavage; type: in vivo, Sprague Dawley rats; details: for inhibition in vivo at 2 mg/kg / IC50 / inhibition in vivo at 6 mg/kg / inhibition in vivo at 8 mg/kg: Rattus norvegicus; for inhibition in vivo at 2 mg/kg / inhibition in vivo at 6 mg/kg / inhibition in vivo at 8 mg/kg: oral gavage; for IC50 / IC10: oral dosing, estimated; for IC50: plasma concentration at which fractional shortening is 50% of pre-dose baseline; for IC10: plasma concentration at which
Method: as §1
For oral dosing studies, three pre-dose baseline M-Mode images were taken at 1 minute intervals prior to compound administration. Compounds were formulated in a 0.5% hydroxypropyl methylcellulose 2910 (HPMC 2910): 0.1% Tween 80 suspension and delivered as a single dose (5 mL/kg) by oral gavage. Rats were lightly anesthetized for M-Mode echocardiography measurements at select time points over a 24 hour period. Different dose levels were evaluated for each compound. The compound effect on cardiac fractional shortening at the highest dose evaluated is presented in Table D as a percent reduction of baseline fractional shortening (=100%).
Concurrent with echocardiography measurements, blood samples were taken to determine the corresponding compound plasma concentration.

[4] = 1 h, 1-2 h post dose, read-out: FS (% reduction from baseline) at 1-2 h post dose (Mean ± S.D.)
[5] = 4 h post dose, read-out: FS (% reduction from baseline) at 4 h post dose (Mean ± S.D.)

Chain of bovine cardiac myofibrils (full-length cardiac myosin ATPase in the native sarcomere) (Q9BE39 whole entry): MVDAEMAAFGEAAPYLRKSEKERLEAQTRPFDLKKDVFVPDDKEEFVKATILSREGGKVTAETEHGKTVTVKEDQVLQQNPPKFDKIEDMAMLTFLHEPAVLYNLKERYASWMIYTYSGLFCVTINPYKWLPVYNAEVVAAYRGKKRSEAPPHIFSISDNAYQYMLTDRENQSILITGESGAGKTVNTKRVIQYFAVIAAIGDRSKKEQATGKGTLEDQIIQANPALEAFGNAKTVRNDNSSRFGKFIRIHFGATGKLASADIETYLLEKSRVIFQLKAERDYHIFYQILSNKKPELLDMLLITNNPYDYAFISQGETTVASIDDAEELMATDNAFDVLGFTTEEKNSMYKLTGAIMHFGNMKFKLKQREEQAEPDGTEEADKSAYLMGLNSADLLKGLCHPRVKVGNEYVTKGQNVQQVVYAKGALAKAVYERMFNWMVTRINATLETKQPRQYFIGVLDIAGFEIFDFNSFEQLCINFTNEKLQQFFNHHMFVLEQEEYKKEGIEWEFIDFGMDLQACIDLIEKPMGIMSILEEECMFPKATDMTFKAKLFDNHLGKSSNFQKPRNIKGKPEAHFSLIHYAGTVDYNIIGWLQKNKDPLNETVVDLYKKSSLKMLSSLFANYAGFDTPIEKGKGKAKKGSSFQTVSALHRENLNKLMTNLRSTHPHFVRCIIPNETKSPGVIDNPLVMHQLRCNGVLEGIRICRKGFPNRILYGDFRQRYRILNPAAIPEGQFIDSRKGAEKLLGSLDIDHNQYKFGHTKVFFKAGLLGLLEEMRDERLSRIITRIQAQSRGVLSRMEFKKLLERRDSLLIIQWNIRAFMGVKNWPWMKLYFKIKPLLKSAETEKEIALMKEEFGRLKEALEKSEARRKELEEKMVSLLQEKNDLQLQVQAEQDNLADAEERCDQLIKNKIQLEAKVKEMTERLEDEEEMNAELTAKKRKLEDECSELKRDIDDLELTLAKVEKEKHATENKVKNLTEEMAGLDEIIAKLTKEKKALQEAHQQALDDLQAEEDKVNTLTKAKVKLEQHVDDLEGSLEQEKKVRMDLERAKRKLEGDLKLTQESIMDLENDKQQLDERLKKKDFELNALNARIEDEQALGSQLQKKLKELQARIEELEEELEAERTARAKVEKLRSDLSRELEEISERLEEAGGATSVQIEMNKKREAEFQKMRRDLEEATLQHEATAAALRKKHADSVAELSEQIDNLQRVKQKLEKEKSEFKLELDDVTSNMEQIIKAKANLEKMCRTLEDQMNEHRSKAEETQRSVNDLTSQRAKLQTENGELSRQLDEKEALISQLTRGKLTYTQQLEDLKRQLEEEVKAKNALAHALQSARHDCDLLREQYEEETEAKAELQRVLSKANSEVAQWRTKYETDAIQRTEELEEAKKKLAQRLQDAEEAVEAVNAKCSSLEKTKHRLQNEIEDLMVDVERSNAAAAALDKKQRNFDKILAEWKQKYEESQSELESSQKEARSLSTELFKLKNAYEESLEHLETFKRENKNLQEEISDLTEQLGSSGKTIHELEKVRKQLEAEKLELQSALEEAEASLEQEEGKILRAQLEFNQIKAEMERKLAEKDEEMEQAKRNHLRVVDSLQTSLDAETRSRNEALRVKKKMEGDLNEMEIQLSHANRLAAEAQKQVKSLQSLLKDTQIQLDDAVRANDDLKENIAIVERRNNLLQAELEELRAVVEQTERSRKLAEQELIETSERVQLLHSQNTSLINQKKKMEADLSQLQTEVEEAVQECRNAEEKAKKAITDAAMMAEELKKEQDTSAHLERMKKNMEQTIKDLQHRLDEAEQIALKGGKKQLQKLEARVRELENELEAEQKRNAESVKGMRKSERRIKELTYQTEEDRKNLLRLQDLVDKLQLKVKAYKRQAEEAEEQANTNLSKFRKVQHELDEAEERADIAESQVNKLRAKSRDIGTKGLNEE
Chain of bovine cardiac myofibrils (full-length cardiac myosin ATPase in the native sarcomere) (P85100 whole entry partner): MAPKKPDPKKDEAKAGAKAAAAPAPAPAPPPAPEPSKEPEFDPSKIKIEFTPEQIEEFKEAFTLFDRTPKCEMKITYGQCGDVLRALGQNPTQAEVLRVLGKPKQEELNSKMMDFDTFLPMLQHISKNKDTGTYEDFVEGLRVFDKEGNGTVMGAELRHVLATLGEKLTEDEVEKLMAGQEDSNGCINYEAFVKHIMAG
Chain of bovine cardiac myofibrils (full-length cardiac myosin ATPase in the native sarcomere) (Q3SZE5 whole entry partner): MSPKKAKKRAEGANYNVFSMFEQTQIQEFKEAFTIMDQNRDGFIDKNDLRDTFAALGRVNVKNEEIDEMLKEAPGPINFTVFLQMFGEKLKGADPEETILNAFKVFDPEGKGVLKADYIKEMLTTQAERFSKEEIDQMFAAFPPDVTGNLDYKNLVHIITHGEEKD

Compound | IC50 ([1]; Rattus norvegicus) [nM] | CDMF75 IC15 [2] [nM] | IC50 [2] [nM] | also measured
CCc1nc(-c2ccc3c(c2)CC[C@H]3NC(=O)c2nnn(C)n2)no1 [Compound 183, (R)—N-(5-(5-ethyl-1,2,4-oxadiazol-3-yl)-2,3-dihydro-1H-inden-1-yl)-2-methyl-2H-tetrazole-5-carboxamide] | 1200 ± 20 | 300 | 900 | inhibition in vivo at 2 mg/kg [3, 4]: 42 ± 16%; IC50 [3]: 900 nM; inhibition in vivo at 2 mg/kg [3, 5]: 15 ± 13%; IC10 [3]: 200 nM
Cn1nccc1C(=O)N[C@@H]1COc2cc(-c3noc(C4CC4)n3)ccc21 [Compound 222, (S)—N-(6-(5-cyclopropyl-1,2,4-oxadiazol-3-yl)-2,3-dihydrobenzofuran-3-yl)-1-methyl-1H-pyrazole-5-carboxamide] | 1100 ± 30 | 300 | 1000 | –
Cn1cc(C(=O)N[C@@H]2COc3cc(-c4noc(C5CC5)n4)ccc32)cn1 [Compound 236, (S)—N-(6-(5-cyclopropyl-1,2,4-oxadiazol-3-yl)-2,3-dihydrobenzofuran-3-yl)-1-methyl-1H-pyrazole-4-carboxamide] | 11400 ± 600 | 500 | 1800 | –
CCc1nc(-c2ccc3c(c2)OC[C@H]3NC(=O)c2cnn(C)c2)no1 [Compound 238, (S)—N-(6-(5-ethyl-1,2,4-oxadiazol-3-yl)-2,3-dihydrobenzofuran-3-yl)-1-methyl-1H-pyrazole-4-carboxamide] | 5700 ± 310 | 300 | 1000 | inhibition in vivo at 2 mg/kg [3, 4]: 52 ± 10%; IC50 [3]: 4900 nM; inhibition in vivo at 2 mg/kg [3, 5]: 59 ± 6%; IC10 [3]: 900 nM
CCc1cc(-c2ccc3c(c2)CC[C@H]3NC(=O)c2nnn(C)n2)no1 [Compound 253, (R)—N-(5-(5-ethylisoxazol-3-yl)-2,3-dihydro-1H-inden-1-yl)-2-methyl-2H-tetrazole-5-carboxamide] | 1700 ± 80 | 300 | 800 | inhibition in vivo at 6 mg/kg [3, 4]: 56 ± 9%; IC50 [3]: 1300 nM; inhibition in vivo at 6 mg/kg [3, 5]: 33 ± 7%; IC10 [3]: 300 nM
CCc1nc(-c2ccc3c(c2)CC[C@H]3NC(=O)OC)no1 [Compound 304, methyl (R)-(5-(5-ethyl-1,2,4-oxadiazol-3-yl)-2,3-dihydro-1H-inden-1-yl)carbamate] | 1700 ± 60 | 200 | 700 | –
CCc1nc(-c2ccc3c(c2)CC[C@H]3NC(=O)c2ccnc(C)c2)no1 [Compound 387, (R)-N-(5-(5-ethyl-1,2,4-oxadiazol-3-yl)-2,3-dihydro-1H-inden-1-yl)-2-methylisonicotinamide] | 2400 ± 80 | 500 | 1300 | inhibition in vivo at 6 mg/kg [3, 4]: 59 ± 24%; IC50 [3]: 1600 nM; inhibition in vivo at 6 mg/kg [3, 5]: 50 ± 18%; IC10 [3]: 400 nM
Cc1cc(-c2ccc3c(c2)OC[C@H]3NC(=O)c2cn[nH]c2C)no1 [Compound 434, (S)-5-methyl-N-(6-(5-methylisoxazol-3-yl)-2,3-dihydrobenzofuran-3-yl)-1H-pyrazole-4-carboxamide] | 9300 ± 150 | 700 | 2400 | –
COCc1nc(-c2ccc3c(c2)CC[C@H]3NC(=O)c2ccnc(CO)c2)no1 [Compound 727, (R)-2-(hydroxymethyl)-N-(5-(5-(methoxymethyl)-1,2,4-oxadiazol-3-yl)-2,3-dihydro-1H-inden-1-yl)isonicotinamide] | – | 1200 | 4100 | inhibition in vivo at 8 mg/kg [3, 4]: 63 ± 1%; IC50 [3]: 4700 nM; inhibition in vivo at 8 mg/kg [3, 5]: 33 ± 1%; IC10 [3]: 1200 nM

Further lines, with some results ahead:

IC50 ([1]; Rattus norvegicus) [nM] | CDMF75 IC15 [2] [nM] | IC50 [2] [nM] | Compound | also measured
1500 ± 50 | 300 | 900 | Cn1nnc(C(=O)N[C@@H]2CCc3cc(-c4noc(C5CC5)n4)ccc32)n1 [Compound 141, (R)—N-(5-(5-cyclopropyl-1,2,4-oxadiazol-3-yl)-2,3-dihydro-1H-inden-1-yl)-2-methyl-2H-tetrazole-5-carboxamide] | –
3400 ± 120 | 600 | 2300 | COCc1nc(-c2ccc3c(c2)CC[C@H]3NC(=O)c2nnn(C)n2)no1 [Compound 144, (R)-N-(5-(5-(methoxymethyl)-1,2,4-oxadiazol-3-yl)-2,3-dihydro-1H-inden-1-yl)-2-methyl-2H-tetrazole-5-carboxamide] | –
1100 ± 30 | 700 | 2800 | Cc1nc(-c2ccc3c(c2)OC[C@H]3NC(=O)c2cn(C)nc2C)no1 [Compound 158, (S)-1,3-dimethyl-N-(6-(5-methyl-1,2,4-oxadiazol-3-yl)-2,3-dihydrobenzofuran-3-yl)-1H-pyrazole-4-carboxamide] | –
5400 ± 250 | 800 | 2800 | Cc1nc(-c2ccc3c(c2)OC[C@H]3NC(=O)c2cnn(C)c2)no1 [Compound 211, (S)-1-methyl-N-(6-(5-methyl-1,2,4-oxadiazol-3-yl)-2,3-dihydrobenzofuran-3-yl)-1H-pyrazole-4-carboxamide] | –
4600 ± 170 | 600 | 2200 | CCc1cc(-c2ccc3c(c2)OC[C@H]3NC(=O)c2nnn(C)n2)no1 [Compound 365, (S)-N-(6-(5-ethylisoxazol-3-yl)-2,3-dihydrobenzofuran-3-yl)-2-methyl-2H-tetrazole-5-carboxamide] | –
5400 ± 100 | 900 | 2800 | Cc1ncc(C(=O)N[C@@H]2CCc3cc(-c4noc(C5CC5)n4)ccc32)o1 [Compound 388, (R)-N-(5-(5-cyclopropyl-1,2,4-oxadiazol-3-yl)-2,3-dihydro-1H-inden-1-yl)-2-methyloxazole-5-carboxamide] | –
2100 ± 50 | 400 | 1400 | Cc1n[nH]cc1C(=O)N[C@@H]1CCc2cc(-c3noc(C4CC4)n3)ccc21 [Compound 420, (R)-N-(5-(5-cyclopropyl-1,2,4-oxadiazol-3-yl)-2,3-dihydro-1H-inden-1-yl)-3-methyl-1H-pyrazole-4-carboxamide] | –
4300 ± 110 | 300 | 900 | CCc1cc(-c2ccc3c(c2)OC[C@H]3NC(=O)c2cn[nH]c2C)no1 [Compound 433, (S)—N-(6-(5-ethylisoxazol-3-yl)-2,3-dihydrobenzofuran-3-yl)-5-methyl-1H-pyrazole-4-carboxamide] | –
– | 700 | 3300 | (R)—N-(7-(5-ethyl-1,2,4-oxadiazol-3-yl)chroman-4-yl)-1-methyl-1H-pyrazole-5-carboxamide [Compound 538] | IC50 [1]: 10900 ± 370 nM

Reference: patent publication US12065436B2, “Cardiac sarcomere inhibitors” (Cytokinetics, Inc., priority 2018, dated 2024)
